Data: patent US6372209B1, “Vaginal lactobacillus medicant” (Gyne Logix, Inc., priority 1997, dated 2002)

Experiments:
normal, healthy women = test: Open study: vaginal colonization of healthy women by suppository; assay type: in vivo, human
Description: In this open study, a Lactobacillus suppository containing approximately 10^9 viable, H2O2-producing Lactobacillus crispatus CTV-05 was used by 9 women twice daily for three days. All 9 women were free of genital infection at enrollment, and 8 of the 9 women had endogenous Lactobacilli at enrollment.
Since many women are colonized vaginally and rectally by Lactobacilli, the technique, Repetitive Sequence Polymerase Chain Reaction (Rep PCR), was used to “fingerprint” the suppository strain of L. crispatus and thereby distinguish the suppository strain from endogenous strains of Lactobacilli.

[1] = Accelerated shelf-life of the air-dried suppository at 35, 45 and 55° C.; assay type: physicochemical; conditions: for loss of viability: over about 2.3 days
Method: Strain CTV-05 was tested in a gelatin capsule suppository during storage at 55° C., 45° C., 35° C. and at room and refrigeration temperatures. […] Between the fourth and ninth weeks counts dropped to 9.8×10^7 per suppository and have remained at 10^7 for 25 months.
At 35° C., the product lost less than 1 log of viability over about 2.3 days. At 45° C., the product lost about 2 logs of viability over about 2.3 days. At 55° C., the product lost viability rapidly within 0.5 days.

[2] = Purity and genetic fingerprint (Rep PCR) of suppository lots
Method: (1.1) Purity of the strain: The purity of the suppository strain (i.e., lack of presence of contaminating organisms in a culture) was confirmed by specifically distinguishing the suppository strain from other strains using DNA fingerprinting techniques. DNA fingerprinting was performed by Repetitive Sequence Polymerase Chain Reaction (Rep PCR). In order to determine whether the Rep PCR method could distinguish the suppository strain (CTV-05) from endogenous L. crispatus, 40 strains of L. crispatus were recovered from the vagina of women of child-bearing age and compared to CTV-05. L. crispatus species identity was determined using whole chromosomal DNA homology to control strain L. crispatus ATCC 33197. […] The suppository strain (CTV-05) was distinguished from the others by four bands in the 2500-1500 base pair region. In this region, the CTV-05 fingerprint consists of intense bands at 2500 and 1500 and less amplified bands at 2000 and 1736 base pairs (data not shown).
Six different lots of L. crispatus CTV-05 prepared over a 2 year period were evaluated for purity and stability of the genetic fingerprint. […] Further, there has been no lot-to-lot variability in the “fingerprint” of the DNA of the suppository strain (data not shown).

[3] = test system: women who had bacterial vaginosis; test: Suppository as treatment for bacterial vaginosis; assay type: in vivo, human
Description: In this study, 13 women who had bacterial vaginosis were given Lactobacillus crispatus CTV-05 suppositories twice daily for seven days. The purpose of this study was to evaluate whether Lactobacillus suppositories could be used as a treatment for bacterial vaginosis. Only 1 of 10 women who returned for follow-up was cured of bacterial vaginosis at the one week follow-up visit.

H2O2 production = test: Production of H2O2 (TMB medium or EM strips); conditions: gelatin capsule suppository, storage period up to 25 months
Method: (1.4) Production of H2O2: Strains were inoculated onto tetramethylbenzidine medium (TMB) and incubated at 37° C. for 2-3 days under anaerobic conditions. H2O2-producing colonies produce a blue pigment upon exposure to ambient air. Alternatively, H2O2-detecting strips from EM Science were used. The reagent impregnated portion of the strip was applied to a Lactobacillus colony and the intensity of the resulting blue color served as a quantitative measure of H2O2 concentration.

[4] = Stability of viability: room temperature and refrigerated storage (plate count, MRS agar); assay type: physicochemical
Method: (1.5) Stability of viability: Samples of each evaluated strain were retained for shelf-life studies at room temperature and refrigerated storage. At selected time intervals, samples were tested for the number of colony-forming-units using the Plate Count method with MRS agar.
Strain CTV-05 was tested in a gelatin capsule suppository during storage at 55° C., 45° C., 35° C. and at room and refrigeration temperatures. […] Between the fourth and ninth weeks counts dropped to 9.8×10^7 per suppository and have remained at 10^7 for 25 months. […]

Q: Which results are given for Lactobacillus crispatus CTV-05?
A: inflammation, microscopically (white blood cells on vaginal smear) (normal, healthy women; 9 women): None of the women had evidence of inflammation; side effects (normal, healthy women; 9 women): none complained of side effects; women colonized by the suppository strain (normal, healthy women; 9 women, approximately 10^9 viable cells twice daily for three days, 2-3 days after last capsule): all of the women were colonized; women remaining colonized (normal, healthy women; 9 women, at 1 month): 8 of 9; vaginal colonization, Patient 103 (normal, healthy women; four weeks later): still colonized with CTV-05; vaginal colonization, Patient 102 (normal, healthy women; one month visit): still colonized by L. crispatus CTV-05; vaginal colonization, Patient 103 (normal, healthy women; one week after use twice daily for 3 days): colonized by CTV-05 as well as by another strain of Lactobacilli; vaginal colonization, Patient 102 (normal, healthy women; one week visit after use of the suppository): colonized by three strains of Lactobacilli, which included (1) the suppository strain; vaginal colonization, Patient 102 (normal, healthy women; one year after enrollment): colonized exclusively by the suppository strain; loss of viability ([1]; 35° C.): less than 1 log; loss of viability ([1]; 45° C.): about 2 logs; time within which viability was rapidly lost ([1]; 55° C.): ≤ 0.5 days; contaminants in lots ([2]; six lots prepared over a 2 year period, enriched chopped meat broth, anaerobic): free of contaminants; genetic fingerprint (Rep PCR) between lots ([2]; small scale and scale-up lots): identical fingerprints; women successfully colonized by the suppository strain ([3]; suppositories twice daily for seven days, follow-up): 7 of the 10; women cured of bacterial vaginosis ([3]; suppositories twice daily for seven days, one week follow-up visit): 1 of 10; side-effects ([3]; twice daily for seven days): None of the women experienced any side-effects; visual or microscopic evidence of inflammation ([3]; twice daily for seven days): none had either visual or microscopic evidence of inflammation; H2O2 production during storage (H2O2 production): remained stable; CFUs per Suppository ([4]; Refrigerated (2-8° C.), 1 month): 5.20E+08 CFUs per Suppository; CFUs per Suppository ([4]; Refrigerated (2-8° C.), 2 months): 2.20E+08 CFUs per Suppository; CFUs per Suppository ([4]; Refrigerated (2-8° C.), 3 months): 2.30E+08 CFUs per Suppository; CFUs per Suppository ([4]; Refrigerated (2-8° C.), 5 months): 2.80E+08 CFUs per Suppository; CFUs per Suppository ([4]; Refrigerated (2-8° C.), 6 months): 1.70E+08 CFUs per Suppository; CFUs per Suppository ([4]; Refrigerated (2-8° C.), 7 months): 2.60E+08 CFUs per Suppository; CFUs per Suppository ([4]; Refrigerated (2-8° C.), 9 months): 3.10E+08 CFUs per Suppository; CFUs per Suppository ([4]; Refrigerated (2-8° C.), 11 months): 2.50E+08 CFUs per Suppository; CFUs per Suppository ([4]; Refrigerated (2-8° C.), 15 months): 9.20E+07 CFUs per Suppository; CFUs per Suppository ([4]; Refrigerated (2-8° C.), 18 months): 1.50E+07 CFUs per Suppository; CFUs per Suppository ([4]; Refrigerated (2-8° C.), 25 months): 5.00E+08 CFUs per Suppository; CFUs per Suppository ([4]; Room Temperature (25° C. ± 5° C.), 1 month): 1.30E+08 CFUs per Suppository; CFUs per Suppository ([4]; Room Temperature (25° C. ± 5° C.), 1 week): 3.80E+08 CFUs per Suppository; CFUs per Suppository ([4]; Room Temperature (25° C. ± 5° C.), 2 months): 9.80E+07 CFUs per Suppository; CFUs per Suppository ([4]; Room Temperature (25° C. ± 5° C.), 2 weeks): 3.20E+08 CFUs per Suppository; CFUs per Suppository ([4]; Room Temperature (25° C. ± 5° C.), 3 months): 1.83E+07 CFUs per Suppository; CFUs per Suppository ([4]; Room Temperature (25° C. ± 5° C.), 3 weeks): 3.05E+08 CFUs per Suppository; CFUs per Suppository ([4]; Room Temperature (25° C. ± 5° C.), 4 months): 3.25E+07 CFUs per Suppository; CFUs per Suppository ([4]; Room Temperature (25° C. ± 5° C.), 5 months): 3.80E+07 CFUs per Suppository; CFUs per Suppository ([4]; Room Temperature (25° C. ± 5° C.), 6 months): 1.70E+07 CFUs per Suppository; CFUs per Suppository ([4]; Room Temperature (25° C. ± 5° C.), 7 months): 1.60E+07 CFUs per Suppository; CFUs per Suppository ([4]; Room Temperature (25° C. ± 5° C.), 9 months): 4.70E+07 CFUs per Suppository; CFUs per Suppository ([4]; Room Temperature (25° C. ± 5° C.), 11 months): 2.80E+07 CFUs per Suppository; CFUs per Suppository ([4]; Room Temperature (25° C. ± 5° C.), 15 months): 2.20E+06 CFUs per Suppository; CFUs per Suppository ([4]; Room Temperature (25° C. ± 5° C.), 18 months): 4.70E+06 CFUs per Suppository; CFUs per Suppository ([4]; Room Temperature (25° C. ± 5° C.), 25 months): 1.60E+07 CFUs per Suppository; colony counts, stable level ([4]; refrigerated product, for 5 months): 10^8 per suppository; colony counts after drop ([4]; room temperature, between the fourth and ninth weeks): 9.8×10^7 per suppository; colony counts, stable level ([4]; room temperature, for 4 weeks): 10^8 per suppository; colony counts, level maintained ([4]; room temperature, for 25 months): 10^7; CFU value at which product remained stable after drop from 10^8 at 2 months ([4]; stored at room temperature (25° C. +5° C.), for 25 months): 10^7 CFU; CFU value at which product was stable ([4]; stored refrigerated (2-8° C.), for 25 months): 10^8 CFU
